This data set can be described thus: Water solubility. To be noted: 25 °C.

A word on the solubility: it is the concentration that dissolves in the medium under given conditions. Read a high solubility as much dissolved substance.

Each structure is given as a SMILES string. Values after ≈ are worked out from the molar mass of the structure shown.

With `CO/N=C1\CN(c2nc3c(cc2F)c(=O)c(C(=O)O)cn3C2CC2)CC1CN` (stereo not shown) [Free form, 7-(3-aminomethyl-4-methoxyiminopyrrolidin-1-yl)-1-cyclopropyl-6-fluoro-4-oxo-1,4-dihydro-1,8-naphthyridine-3-carboxylic acid], the solubility turned out to be 7 µg/mL (≈ 18 µM).

The values above are taken from patent publication US7700617B2, “Salt of naphthyridine carboxylic acid derivative” (LG Life Sciences, Ltd., priority 1997, dated 2010).
